# Patent publication US20060142321A1, “5-HT7 receptor antagonists” (priority 2004, published 2006)
# Structures can show the parent of a compound that is named as a salt.
# Target: T1, Cloned Human Serotonin Receptor, Subtype 7 (h5HT7) (Homo sapiens, UniProt P34969)
# T1 construct: purchased PerkinElmer 6120512; host or cells: CHO cells (membranes coated on Basic FlashPlate SMP200)
# Test: Radioligand binding assay, [125I]LSD, cloned h5HT7 expressed in CHO cells (Flashplate)
# Conditions: [125I]LSD 0.82 nM, room temperature, 240 minutes, read-out: 5-HT7 IC-50
# Protocol: Biological Assays Radioligand Binding
# Radioligand binding assays were performed using the Cloned Human Serotonin Receptor, Subtype 7 (h5HT7), expressed in CHO cells, coated on Flashplate (Basic FlashPlate Cat.: SMP200) from PerkinElmer (Cat.: 6120512). The protocol assay was essentially the recommended protocol in the Technical Data Sheet by PerkinEmer Life and Analytical Sciences. The Mass membrane protein/well was typically 12 μg and the Receptor/well was about 9-10 fmoles. The Flashplate were let equilibrate at room temperature for one hour before the addition of the components of the assay mixture. The binding buffer was: 50 mM Tris-HCl, pH 7.4, containing 10 mM MgCl2, 0.5 mM EDTA and 0.5% BSA. The radioligand was [^125I]LSD at a final concentration of 0.82 nM. Nonspecific binding was determined with 50 μM of Clozapine. The assay volume was 25 μl. TopSeal-A were applied onto Flashplate microplates and they were incubated at room temperature for 240 minutes in darkness. The radioactivity were quantified by liquid scintillation spectrophotometry (Wallac 1450 Microbeta Trilux) with a count delay of 4 minutes prior to counting and a counting time of 30 seconds per well. Competition binding data were analyzed by using the LIGAND program (Munson and Rodbard, LIGAND: A versatile, computerized approach for characterization of ligand-binding systems. Anal. Biochem. 107: 220-239, 1980) and assays were performed in triplicate determinations for each point.
# T1 sequence (P34969 whole entry): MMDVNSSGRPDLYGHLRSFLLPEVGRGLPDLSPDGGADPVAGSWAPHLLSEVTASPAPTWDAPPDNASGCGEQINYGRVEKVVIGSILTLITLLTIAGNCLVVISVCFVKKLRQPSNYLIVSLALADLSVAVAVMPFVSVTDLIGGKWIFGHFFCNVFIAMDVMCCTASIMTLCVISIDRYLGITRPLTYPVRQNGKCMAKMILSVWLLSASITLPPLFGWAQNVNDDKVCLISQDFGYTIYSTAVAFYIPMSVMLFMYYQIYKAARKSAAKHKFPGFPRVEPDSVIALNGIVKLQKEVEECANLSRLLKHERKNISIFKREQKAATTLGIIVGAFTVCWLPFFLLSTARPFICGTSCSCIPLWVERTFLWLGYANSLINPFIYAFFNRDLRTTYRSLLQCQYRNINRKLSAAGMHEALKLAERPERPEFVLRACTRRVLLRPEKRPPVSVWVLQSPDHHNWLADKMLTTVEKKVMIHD
row,IC50 [nM],Structure (SMILES)
1,156,"COc1cc2c3c(c1OC)CCC3N(CCCNS(=O)(=O)c1cc(Cl)ccc1Cl)CC2 (stereo not shown) [Compound 56, 2,5-Dichloro-N-[3-(7,8-dimethoxy-2,2a,4-5-tetrahydro-1H-3-aza-acenaphthylen-3-yl)-propyl]-benzene sulfonamide hydrochloride]"
2,142,"O=S(=O)(NCCCN1CCc2cccc3c2C1CC3)c1cc(Cl)ccc1Cl (stereo not shown) [Compound 15, 2,5-Dichloro-N-[3-(2,2a,4-5-tetrahydro-1H-3-aza-acenaphthylen-3-yl)-propyl]-benzenesulfonamide hydrochloride]"
3,189,"COc1cc2c3c(c1OC)CCC3N(CCCNS(=O)(=O)c1cc(F)c(F)cc1Cl)CC2 (stereo not shown) [Compound 58, 2-Chloro-N-[3-(7,8-dimethoxy-2,2a,4-5-tetrahydro-1H-3-aza-acenaphthylen-3-yl)-propyl]-4,5-difluoro-benzene sulfonamide hydrochloride]"
4,79.2,"Cc1cc(S(=O)(=O)NCCCCN2CCc3cccc4c3C2CC4)c(C)cc1Cl (stereo not shown) [Compound 7, 4-Chloro-2,5-dimethyl-N-[4-(2,2a,4-5-tetrahydro-1H-3-aza-acenaphthylen-3-yl)-butyl]-benzenesulfonamide hydrochloride]"
